Results: publication PMC7822874, “Chemoprotective antimalarials identified through quantitative high-throughput screening of Plasmodium blood and liver stage parasites” (Scientific Reports, 2021)
Values joined by “and” are separate entries in the source; they are usually repeats but may differ in a detail not shown here. Equal values may be shown once. Read-outs that look alike come from different tables or passages of the source.

Columns and labels:
[1] = system: P. falciparum Dd2 (clone B2) asexual blood stage parasites; assay: P. falciparum Dd2 asexual blood stage SYBR Green-I 72 h proliferation assay (qHTS); format: cell-based, Plasmodium falciparum; conditions: for Pf ABS Log AC50 (M): averaged P. falciparum asexual blood stage potency, log10 of AC50 in M
HepG2-A16-CD81EGFP cells = conditions: for Average HepG2 3 µM response( %): averaged response (percent)
[2] = system: P. berghei-ANKA-GFP-LucCON liver stage parasites in HepG2-A16-CD81EGFP cells; assay: P. berghei liver stage Pb-Luc assay, Method 1 (UCSD, 1536-well); format: cell-based, Plasmodium berghei; conditions: for Average P. berghei 3 µM response( %) / Average P. berghei 1 µM response (%): P. berghei liver stage, averaged response (percent); for Average P. berghei 1 µM response (%): the header list (r8) defines it as the 1 µM dose; for AC50 / activity at 1 µM / activity at 3 µM: Plasmodium berghei; for AC50 / Max Resp (signal direction of the dose response): Method 1; for activity at 1 µM / activity at 3 µM: 48 h, average of 2 wells, 1536-well plate; for activity at 1 µM: nominal 1 uM (10 mM stock), […] for 15 mM, 1.2 uM for 12 mM, 2 uM for 20 mM stock; for activity at 3 µM: nominal 3 uM (10 mM stock), 4.5 uM for 15 mM, 3.6 uM for 12 mM, 6 uM for 20 mM stock; for Max Resp (signal direction of the dose response): Decrease = decreasing P. berghei viability with dose, Increase = increasing signal, Inactive = no dose response
[3] = system: T1, Plasmodium falciparum Dd2-attB (parental line), asexual blood stages; assay: microbe, parasite or virus in culture; parameters: replicate k of 3 (each line is one of three independent assays; the three lines of one compound and parasite line follow each other); conditions: n = 1; for Individual replicates / Log AC50 (M): 72 h; for AC50: Plasmodium falciparum, DD2, 72 h, read-out: Individual replicates / Log AC50 (converted)
T1 construct: Dd2-attB, the isogenic parental line
Outline: (§1)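 Three independent runs, compound subset only; parental vs ScDHODH line compared by two-sided Student's t-test.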

[4] = system: luciferase-expressing P. berghei liver stage parasites in HepG2 cells; assay: Inhibition of liver-stage development assay (ILSDA), Method 2 (WRAIR, 96-well); format: cell-based, Plasmodium berghei; conditions: for Max Resp (signal direction of the dose response) / AC50 / Log AC50 (M): Method 2; for Max Resp (signal direction of the dose response): Decrease = decreasing P. berghei viability with dose, Increase = increasing signal, Inactive = no dose response; for AC50: Hill fit, 50% of maximum activity response, read-out: AC50; for Log AC50 (M): log10 of molar AC50 from Hill fit; for Activity direction (Decrease / Inactive): P. berghei liver stage, Method 2, dose response
[5] = system: T2, Plasmodium falciparum Dd2-attB-ScDHODH (transgenic line expressing yeast DHODH), asexual blood stages; assay: organism not typed; parameters: replicate k of 3 (each line is one of three independent assays; the three lines of one compound and parasite line follow each other); conditions: 72 h, n = 1
T2 construct: Dd2-attB-ScDHODH, the transgenic line that expresses yeast DHODH
Outline: as §1

[6] = system: Plasmodium falciparum Dd2 asexual blood stage parasites; assay: microbe, parasite or virus in culture; parameters: species or system Plasmodium falciparum Dd2 in human erythrocytes; single determination (one 11-point concentration-response curve); conditions: Plasmodium falciparum, DD2, Erythrocyte, 72 h; read-out: AC50
in vitro = conditions: human, HepG2-A16-CD81EGFP cells, uninfected
[7] = HepG2, the header list (r10) describes it as the 1 µM dose
[8] = Hill fit, 50% of maximum activity response, read-out: AC50
[9] = log10 of molar AC50 from Hill fit, read-out: Log AC50 (converted)
[10] = repeat 1, read-out: Pb-Luc signal, 1 uM, repeat 1
[11] = repeat 2, read-out: Pb-Luc signal, 1 uM, repeat 2
[12] = repeat 3, read-out: Pb-Luc signal, 1 uM, repeat 3
[13] = repeat 1, read-out: Pb-Luc signal, 3 uM, repeat 1
[14] = repeat 2, read-out: Pb-Luc signal, 3 uM, repeat 2
[15] = repeat 3, read-out: Pb-Luc signal, 3 uM, repeat 3

Compound | Pf ABS Log AC50 (M) [1] [M] | Average HepG2 3 µM response( %) (HepG2-A16-CD81EGFP cells; HepG2, 3 µM dose) [%] | Average HepG2 3 µM response( %) (HepG2-A16-CD81EGFP cells; [7]) [%] | Average P. berghei 3 µM response( %) [2] [%] | Average P. berghei 1 µM response (%) [2] [%] | Individual replicates / Log AC50 (M) [3] | Individual replicates / Log AC50 (M) [5] | AC50 [6] [nM] | AC50 [2, 8] [nM] | AC50 [2, 9] [nM] | further results
Cc1nn(-c2nnc(NCc3ccccc3)nn2)c(C)c1Br [MLS000704225] | -6.187 | 93 | 102 | 57 | 106 |  |  |  |  |  | 
C[C@H]1[C@@H](O)O[C@@H]2O[C@@]3(C)CC[C@H]4[C@H](C)CC[C@@H]1[C@@]24OO3 [dihydroartemisinin, reference compound] |  |  |  |  |  |  |  |  |  |  | AC50 ([1]; Plasmodium falciparum, DD2, 72 h, SYBR Green 72 h, read-out: AC50, Dd2 ABS parasites): 2 nM
O=S1(=O)N(CCN2CC=C(c3c[nH]c4cc(F)ccc34)CC2)c2cccc3c2N1CCC3 [MLS002172448] | -6.050 | 80 | 88 | 60 | 78 |  |  |  |  |  | 
Clc1ccc(-c2nnc(N3CCCC3)nn2)cc1 [MLS000038815] | -5.512 | 104 | 104 | 153 | 160 |  |  |  |  |  | 
Cc1ccc2oc(=O)c3cnn(CC(=O)Nc4cccc(C(F)(F)F)c4)c3c2c1 [NCGC00110933] | -5.575 | 98 | 97 | 101 | 114 |  |  |  |  |  | 
O=C(Nc1c(C(=O)c2ccccc2)oc2ccccc12)c1cc(-c2ccccc2O)n[nH]1 [MLS000331861] | -5.837 | 101 | 103 | 116 | 84 |  |  |  |  |  | 
Cc1ccc(C)c(NC2=C(c3ccc(C(F)(F)F)cc3)C(=O)c3ccccc32)c1 [NCGC00107302-01] |  |  |  |  |  | -5.6986 Log AC50 (M) and -5.7486 Log AC50 (M) | -4.9986 Log AC50 (M) and -5.0486 Log AC50 (M) | 4730 | 1580 | 1580 | AC50 [3]: 1130 nM; Max Resp (signal direction of the dose response) [4]: Decrease; AC50 [4]: 501 nM; Log AC50 (M) [4]: -6.300 M; AC50 ([5]; read-out: Individual replicates / Log AC50 (converted)): 7970 nM
Oc1ccc(CN2CC(CNc3ccccc3)C3(C2)CN(c2ccccc2)C3)cc1 (stereo not shown) [NCGC00416032-01] |  |  |  |  |  | -5.9373 Log AC50 (M) and -6.1873 Log AC50 (M) | -5.6373 Log AC50 (M) and -5.9873 Log AC50 (M) | 611 | 1410 | 1410 | AC50 [3]: 818 nM; Activity direction (Decrease / Inactive) [4]: Inactive; viability at 48 h, 1 µM (in vitro): 106%; viability at 48 h, 3 µM (in vitro): 106%; HepG2 viability signal, 1 uM, repeat 2 (HepG2-A16-CD81EGFP cells; nominal 1 uM (10 mM stock), […] for 15 mM, 1.2 uM for 12 mM, 2 uM for 20 mM stock, average of 2 wells, repeat 2): 101.59%; HepG2 viability signal, 3 uM, repeat 2 (HepG2-A16-CD81EGFP cells; nominal 3 uM (10 mM stock), 4.5 uM for 15 mM, 3.6 uM for 12 mM, 6 uM for 20 mM stock, average of 2 wells, repeat 2): 99.28%; activity at 1 µM [2, 10]: 52.9%; activity at 1 µM [2, 11]: 59%; activity at 1 µM [2, 12]: 77.5%; activity at 3 µM [2, 13]: 5.3%; activity at 3 µM [2, 14]: 6.04%; activity at 3 µM [2, 15]: 8.95%
CCCN1C(CC(C)C)=N[S+](=O)([O-])c2cc(NC(=O)c3ccco3)ccc21 [NCGC00473219-01] |  |  |  |  |  | -6.1986 Log AC50 (M) and -5.7986 Log AC50 (M) and -6.3486 Log AC50 (M) | -5.5986 Log AC50 (M) and -5.4986 Log AC50 (M) and -5.2486 Log AC50 (M) | 7500 | 631 | 631 | Activity direction (Decrease / Inactive) [4]: Inactive; viability at 48 h, 1 µM (in vitro): 103%; viability at 48 h, 3 µM (in vitro): 105%; HepG2 viability signal, 1 uM, repeat 2 (HepG2-A16-CD81EGFP cells): 101.29%; HepG2 viability signal, 3 uM, repeat 2 (HepG2-A16-CD81EGFP cells): 102.75%; Max Resp (signal direction of the dose response) [2]: Decrease; activity at 1 µM [2, 10]: 32.3%; activity at 1 µM [2, 11]: 25.4%; activity at 1 µM [2, 12]: 19.9%; activity at 3 µM [2, 13]: 11.9%; activity at 3 µM [2, 14]: 8.91%; activity at 3 µM [2, 15]: 10.7%
COc1ccc(NC2=C(c3ccc(C(F)(F)F)cc3)C(=O)c3ccccc32)cc1 [NCGC00107310-01] |  |  |  |  |  | -6.3486 Log AC50 (M) and -6.1486 Log AC50 (M) and -6.1986 Log AC50 (M) | -5.7986 Log AC50 (M) and -5.8986 Log AC50 (M) (2×) | 2110 | 1780 | 1780 | Max Resp (signal direction of the dose response) [4]: Decrease; AC50 [4]: 141 nM; Log AC50 (M) [4]: -6.850 M; Max Resp (signal direction of the dose response) [2]: Decrease
